Source: the NIST ThermoML archive (doi:10.1021/je2006743)
± gives the expanded uncertainty stated by the source.

Conditions: 101.33 kPa, Liquid; for viscosity: Falling or rolling sphere viscometry; for mass density: Vibrating tube method

| Compound | viscosity (293.15 K) | viscosity (303.15 K) | viscosity (313.15 K) | viscosity (323.15 K) | viscosity (333.15 K) | viscosity (343.15 K) | mass density (323.13 K) | mass density (333.16 K) | mass density (313.14 K) | further results |
| --- | --- | --- | --- | --- | --- | --- | --- | --- | --- | --- |
| CC(=O)OCC[N+](C)(C)C.O=S(=O)([N-]S(=O)(=O)C(F)(F)F)C(F)(F)F | 309 ± 22 mPa·s | 162 ± 9 mPa·s | 90.7 ± 4.2 mPa·s | 56.8 ± 2.4 mPa·s | 38.5 ± 1.6 mPa·s | 27.5 ± 1.2 mPa·s |  |  |  | mass density (293.18 K): 1486.9 ± 2.6 kg/m3; mass density (303.19 K): 1477.3 ± 2.6 kg/m3; mass density (313.21 K): 1468 ± 2.5 kg/m3; mass density (323.16 K): 1458.8 ± 2.5 kg/m3; mass density (333.19 K): 1449.7 ± 2.5 kg/m3; mass density (343.21 K): 1440.5 ± 2.4 kg/m3 |
| CCCC[N+](C)(C)C.O=S(=O)([N-]S(=O)(=O)C(F)(F)F)C(F)(F)F [butyltrimethylammonium bis(trifluoromethylsulfonyl)imide] | 138 ± 7 mPa·s | 82.3 ± 3.7 mPa·s | 52.2 ± 2.2 mPa·s | 35.5 ± 1.5 mPa·s | 27.9 ± 1.2 mPa·s | 21.5 ± 0.9 mPa·s | 1370 ± 0.7 kg/m3 |  |  | mass density (293.26 K): 1396.5 ± 0.7 kg/m3; mass density (303.22 K): 1387.6 ± 0.7 kg/m3; mass density (313.03 K): 1379 ± 0.7 kg/m3; mass density (333.17 K): 1361.3 ± 0.7 kg/m3; mass density (343.18 K): 1352.8 ± 0.7 kg/m3 |
| CCCC[N+]1(C)CCCC1.O=S(=O)([N-]S(=O)(=O)C(F)(F)F)C(F)(F)F | 101 ± 5 mPa·s | 63.8 ± 2.7 mPa·s | 41.8 ± 1.7 mPa·s | 28.9 ± 1.2 mPa·s | 23.5 ± 1 mPa·s | 18.6 ± 0.8 mPa·s |  |  |  | mass density (293.09 K): 1398 ± 0.7 kg/m3; mass density (302.89 K): 1389.2 ± 0.7 kg/m3; mass density (313.59 K): 1379.8 ± 0.7 kg/m3; mass density (323.38 K): 1371.3 ± 0.7 kg/m3; mass density (332.57 K): 1363.1 ± 0.7 kg/m3; mass density (342.84 K): 1354.6 ± 0.7 kg/m3 |
| CCC[N+](C)(C)CCO.O=S(=O)([N-]S(=O)(=O)C(F)(F)F)C(F)(F)F | 160 ± 9 mPa·s | 92.7 ± 4.3 mPa·s | 58.1 ± 2.4 mPa·s | 38.7 ± 1.6 mPa·s | 30.3 ± 1.3 mPa·s | 22.9 ± 1 mPa·s |  | 1418.1 ± 0.8 kg/m3 |  | mass density (293.16 K): 1453.6 ± 0.8 kg/m3; mass density (303.16 K): 1444.5 ± 0.8 kg/m3; mass density (313.11 K): 1435.7 ± 0.8 kg/m3; mass density (323.14 K): 1426.8 ± 0.8 kg/m3; mass density (343.14 K): 1408.7 ± 0.8 kg/m3 |
| O=S(=O)([N-]S(=O)(=O)C(F)(F)F)C(F)(F)F.OCCC[n+]1ccccc1 | 160 ± 9 mPa·s | 92.2 ± 4.3 mPa·s | 57.7 ± 2.5 mPa·s | 38.2 ± 1.6 mPa·s | 29.4 ± 1.2 mPa·s | 22.8 ± 1 mPa·s |  | 1513.8 ± 2.7 kg/m3 | 1532.1 ± 2.8 kg/m3 | mass density (293.15 K): 1551 ± 2.8 kg/m3; mass density (303.24 K): 1541.7 ± 2.8 kg/m3; mass density (323.15 K): 1522.9 ± 2.7 kg/m3; mass density (343.13 K): 1504.7 ± 2.7 kg/m3 |
| CCCCCC[n+]1cccc(C)c1.O=S(=O)([N-]S(=O)(=O)C(F)(F)F)C(F)(F)F | 105 ± 5 mPa·s | 64.2 ± 2.7 mPa·s | 41.2 ± 1.7 mPa·s | 28.3 ± 1.2 mPa·s | 22.5 ± 0.9 mPa·s | 17.5 ± 0.7 mPa·s | 1329.7 ± 0.7 kg/m3 |  | 1338.4 ± 0.7 kg/m3 | mass density (293.14 K): 1356.1 ± 0.7 kg/m3; mass density (303.17 K): 1347.1 ± 0.7 kg/m3; mass density (333.22 K): 1321 ± 0.7 kg/m3; mass density (343 K): 1312.9 ± 0.6 kg/m3 |
